Earlier results, collected in patent US20190231795A1, “METHODS FOR TREATING CANCER AND PREDICTING DRUG RESPONSIVENESS IN CANCER PATIENTS” (LiPlasome Pharma ApS, priority 2018, published 2019).

Tests used:
[1] = tested on: DNA platinum adducts (GG-Pt) in tumor tissue; conditions: comparison value

In the case of `N.N.[Cl][Pt][Cl]` [conventional cisplatin, cisplatin], the “increase of DNA-platinum (GG-Pt) in tumor tissue seen with conventional cisplatin” value [1] is given as 4-6 fold and the response rate (metastatic breast cancer) is given as 10%.
